# Assay results from patent publication US20230151342A1, “ZINC FINGER DEGRADATION DOMAINS” (THE BROAD INSTITUTE, INC, priority 2020, published 2023).
# Where no end group is shown, it is not given here.
# Experiments:
# K562-CD19 cells = assay: Jurkat CAR functional assay: CD69 expression after co-culture with K562-CD19 cells; type: cell-based
# Source text: FIG. 12A-12D—ON-switch split CARs only function in the presence of lenalidomide. (FIG. 12A) Schematic of split CAR constructs. Each split CAR is composed of the indicated antigen-binding part A and the ITAM-containing part B. The lenalidomide-induced dimerization module is encoded by zinc fingers from IKZF3 or the engineered 913 zinc finger and a fragment of CRBN (CRBNΔ3). The intracellular domains of each split CAR part A is protected from CRL4^CRBN ubiquitination by K>R “K0” substitutions. The control second generation CAR FMC63-CD28-CD3z was also used. sCAR, split CAR. […] (FIG. 12C) Primary T cells were infected with lentiviruses encoding parts A and B of split CAR 913. Untransduced cells and cells expressing components A only, B only, and both A+B were purified by FACS. Cytotoxic activity of each sorted cell population was measured after overnight co-culture with NALM6 target cells and lenalidomide or vehicle control at the indicated effector:target ratios. The maximum plasma concentration for once daily 25 mg lenalidomide in multiple myeloma patients is indicated. (FIG. 12D) Scatterplots showing the production of cytokines after co-culture (1:1 CAR T:NALM6 ratio) in the presence of 1000 nM lenalidomide versus vehicle control. Experiments were performed in triplicate and error bars indicate standard deviation.
# FIG. 24 Validation of lenalidomide-OFF-switch control of CAR T cell activation, as assessed by expression of the early activation marker CD69, in Jurkat T cells expressing various super-degron tagged chimeric antigen receptors. Regulation of CAR T cell activation with the indicated super-degrons, in comparison to the previously described degron d913. […]
# Thalidomide analogs control degradable CAR T cell activation and effector functions in vitro and in vivo. […] Then cytokine production was analyzed in response to antigen stimulation.
# NALM6 target cells [1] = assay: Cellular cytotoxicity assay of primary human CAR-T cells; type: cell-based
# Source text: (§1) To evaluate whether effector functions of primary T cells could be gated by lenalidomide, primary sCAR 913 T cells were generated. As the two split CAR components are delivered by separate lentivectors, this gave the ability to use FACS to purify cells expressing neither, one, or both components.
# (§2) Thalidomide analogs control degradable CAR T cell activation and effector functions in vitro and in vivo. To test whether degradable CAR T cell activation could be controlled with lenalidomide, 19BBz, 19BBz-dIKZF3, 19BBz-d91.3, and 19BBz-d91.3* Jurkat CAR T cell lines were co-cultured with K562 cells engineered to express the target antigen CD19 (K562-CD19) and 11 lenalidomide concentrations or vehicle control. […] To evaluate whether effector functions of degradable CAR T cells could be controlled with lenalidomide, primary human CAR T cells were generated and cytotoxicity assays performed comparing the conventional 19BBz CAR to the degradable 19BBz-d91.3 CAR in vitro. […] Then cytokine production was analyzed in response to antigen stimulation.
# (§3) Primary human CAR-T effector cells were co-cultured with NALM6 target cells engineered to express click beetle green luciferase at the indicated ratios for 16 hours. Luciferase activity was measured with a Synergy Neo2 luminescence microplate reader (Biotek). Cell culture supernatant from these experiments was analyzed for soluble cytokines (Luminex).
# NALM6 target cells [2] = assay: Cytokine production in CAR T:NALM6 co-culture supernatant (Luminex); type: cell-based
# Source text: as §1, §2, §3
# [3] = 25 mg per day dosing; multiple myeloma patients; cited from earlier work
# [4] = tested on: CAR protein abundance in CAR-Jurkat cells; assay: Jurkat CAR protein degradation (flow cytometry anti-Myc tag, western blot)
# Description: CAR-Jurkat cells were treated with lenalidomide or vehicle control and then (FIG. 13B) analyzed by western blot for the specified targets or (FIG. 13C) analyzed by flow cytometry to quantify the CAR protein abundance normalized to vehicle control (anti-Myc tag). (FIG. 13D) CAR-Jurkat cells were co-cultured with K562-CD19 cells and lenalidomide or vehicle control and then analyzed by flow cytometry for the percentage of CD69+ cells. (FIG. 13E) The concentration of IL2 in supernatants from FIG. 13D was measured by ELISA. […] All experiments were performed in triplicate. Error bars indicate standard deviation.
# Next, the kinetics of CAR depletion was examined after the addition of lenalidomide. […] We also examined the dynamics of CAR re-synthesis after washout of lenalidomide.
# Normalized CAR expression was calculated via subtraction of the MFI of unstained cells and normalization to the signal intensity of vehicle control-treated cells. […] Luciferase-tagged CAR luminescence was measured with an EnVision plate reader (PerkinElmer).
# [5] = tested on: JeKo-1 mantle cell lymphoma cells; assay: In vivo tumor control model, mantle cell lymphoma xenograft; conditions: NSG mice engrafted with JeKo-1 cells; no drug
# Description: (§4) FIG. 14A-14I—OFF-switch degradable CARs can be transiently depleted with pomalidomide and enforce tumor control in vivo. (FIG. 14A) Schematic of luciferase-tagged CAR constructs. […] (FIG. 14C) Summary of BLI 24 hours before, 6 hours after, and 24 hours after pomalidomide. Comparing the d91.3 and d91.3* CARs across each timepoint using two-tailed t-tests yielded p-values of 0.35, 0.003, and 0.14, respectively. (FIG. 14D) BLI representing CAR abundance over time. (FIG. 14E) Experimental design for in vivo tumor control model: NSG mice were injected intravenously with 1e6 GFP+/luciferase+ JeKo-1 tumor cells. At day 0, mice were randomly assigned on the basis of tumor burden to receive 1e6 control T cells (UTD), 19BBz, or 19BBz-d91.3. (FIG. 14F) Average luminescence of whole mice in the 3 groups over time. […] The percentage of JeKo-1 cells (FIG. 14H) and human T cell (FIG. 14I) among mononuclear cells in the bone marrow or spleen at day 35.
# Subtle sequence changes to chimeric antigen receptors have been associated with intended and unintended consequences for CAR T cell efficacy and toxicity in clinical trials as well as pre-clinical models (23, 33, 34). Therefore, we determined whether addition of the zinc finger super-degron tag impacts CAR T cell activity in a mantle cell lymphoma xenograft model. We engrafted NSG mice with CD19+ luciferase+ JeKo-1 mantle cell lymphoma cells. […]
# 2FKBP (N+L) Cas9 = assay: dTAG-induced degradation of FKBP-Cas9 (eGFP disruption, western blotting, degradation kinetics); type: cell-based; conditions: multiple assays
# Description: Degraders targeting variant Cas9 proteins is explored in the following example. SpCas9 variants were prepared and transfected into several cell lines.
# Control of CRIPSR-Cas degradation can control editing outcomes.
# [6] = tested on: NALM6 cells engrafted in NSG mice; assay: In vivo CAR T cell cytokine release model; conditions: day 5
# Source text: To evaluate whether degradable CAR T cell cytokine release could be controlled in vivo, a high-level tumor engraftment model was used to provoke CAR T cell cytokine release. NALM6 cells were engrafted in non-obese diabetic scid gamma (NSG) mice one week before injection of conventional 19BBz CAR T cells, degradable 19BBz-d91.3 CAR T cells, or untransduced control T cells. On days 3-5 after T cell transfer, mice were either left untreated, treated daily, or treated twice daily with pomalidomide, which was used for in vivo experiments because it has a longer in vivo half-life than lenalidomide. On the afternoon of day 5, serum plasma concentrations were measured for a panel of human T cell cytokines (FIG. 14C). IFN-gamma levels were reduced four-fold (p=0.04) with daily and six-fold (p=0.01) with twice-daily pomalidomide treatment. […] Thus, pomalidomide can be used to limit cytokine release in vivo, the major driver of CAR T cell hyperactivation toxicities.
# [7] = tested on: Jurkat cells expressing 19BBz-FLuc-d91.3 in NSG mice; assay: In vivo CAR depletion model (bioluminescent imaging of luciferase-tagged CAR)
# Description: as §4
# As expected, after exposure to lenalidomide, we observed a dose-dependent decrease in luminescence from Jurkat cells expressing degradable but not control luciferase-tagged CARs (FIG. 14A). Applicants then transplanted NSG mice with the engineered T cells. After establishing detectable engraftment by luminescence imaging, we administered a single 10 mg/kg oral pomalidomide dose the following day, and measured luminescence. […]
compound,measurement,setting,value
"sCAR-91.3: lenalidomide ON-switch split CAR with dimerization domain from hybrid d913 zinc finger and CRBNΔ3 (FNVLMVHKRSHTGERPLQCEICGFTCRQKGNLLRHIKLHTGEKPFKCHLCNYACQRRDAL; cysteine pairing not given here; also: fragment of split CAR, other chain or arm left off)",fold lower EC50 than sCAR IKZF3,"K562-CD19 cells; lenalidomide, Jurkat T cells exposed to CD19+ target cells",7 fold
same,EC50,"K562-CD19 cells; lenalidomide, split CAR-Jurkat cells co-cultured with K562-CD19, read-out: EC50 (percentage of CD69+ cells)",29.3 nM
same,killing of NALM6 target cells,"NALM6 target cells [1]; 1000 nM lenalidomide, primary split CAR T cells sorted for components A, B",restricted to T cells expressing both halves of sCAR 91.3 in the presence of 1000 nM lenalidomide
same,IL2 production in co-culture,"NALM6 target cells [2]; split CAR primary T cells, NALM6, 1000 nM lenalidomide",required the complete sCAR 91.3 and lenalidomide
"Nc1cccc2c1CN(C1CCC(=O)NC1=O)C2=O (stereo not shown) [lenalidomide, reference compound]",maximum plasma concentration,[3],1.9 µM
same,t½ of CAR depletion upon addition of lenalidomide,"[4]; CAR-Jurkat cells, 95% CI 0.29-0.38",0.33 h
same,t½ of CAR re-expression following lenalidomide treatment and drug washout,"[4]; CAR-Jurkat cells, 95% CI 1.88-13.6",3.57 h
"19BBz-d91.3: degradable anti-CD19 CAR (4-1BB, CD3z) with d91.3 super-degron tag (FNVLMVHKRSHTGERPLQCEICGFTCRQKGNLLRHIKLHTGEKPFKCHLCNYACQRRDAL; not fully specified; cysteine pairing not given here)",inhibition of CD69 early activation marker expression,"K562-CD19 cells; higher concentrations of lenalidomide, overnight co-culture with K562-CD19",more completely
same,target cell killing (specific lysis),"NALM6 target cells [1]; 100 nM or 1000 nM lenalidomide, primary human CAR T cells, NALM6",not detected above background
same,secretion of cytokines reflective of T cell activation,"NALM6 target cells [2]; 100 nM lenalidomide, 9:1 CAR T:NALM6",reduced the secretion of all evaluated cytokines
same,"survival, tumor burden (BLI, spleen, bone marrow), T cell persistence versus conventional 19BBz CAR T cells",[5],no significant differences
same,Half-maximal depletion of the degradable CAR after addition of lenalidomide,[4]; Jurkat cells,~20 min
same,Half-maximal recovery of expression after washout of lenalidomide,[4]; Jurkat cells,~3.6 h
same,fold lower lenalidomide concentration for depletion than endogenous IKZF3,"[4]; western blot, Jurkat cells",approximately 100 fold
same,lenalidomide concentration for depletion as fraction of that required to deplete endogenous IKZF3,"[4]; western blot, Jurkat cells",approximately 1/100
CC[C@H](C(=O)N1CCCC[C@H]1C(=O)O[C@H](CCc1ccc(OC)c(OC)c1)c1ccccc1OCC(=O)NCCCCCCCCNc1ccc2c(c1)C(=O)N(C1CCC(=O)NC1=O)C2=O)c1cc(OC)c(OC)c(OC)c1 (stereo partly shown) [dTAG],concentration sufficient for complete degradation of 2FKBP (N+L) Cas9,2FKBP (N+L) Cas9,1 µM
Nc1cccc2c1C(=O)N(C1CCC(=O)NC1=O)C2=O (stereo not shown) [pomalidomide],reduction of serum IFN-gamma levels,"[6]; daily 30 mg/kg pomalidomide oral gavage days 3-5, p=0.04",four-fold
same,reduction of serum IL-2 levels,"[6]; daily pomalidomide, p=0.05",four-fold
same,reduction of serum IFN-gamma levels,"[6]; twice-daily 30 mg/kg pomalidomide oral gavage days 3-5, p=0.01",six-fold
same,reduction of serum IL-2 levels,"[6]; twice-daily pomalidomide, p=0.06",not significantly reduced
same,luminescence of degradable CAR after 24 hours,[7]; 24 hours after single 10 mg/kg oral pomalidomide dose,recovered to levels similar to that of the control CAR
same,reduction of luminescence from the degradable CAR versus pre-treatment,"[7]; six hours after single 10 mg/kg oral pomalidomide dose, p=0.003",5 fold
